In PMC7401714 (Japanese Journal of Clinical Oncology, 2020):

Tests used:
[1] = system: advanced solid tumors; assay: Phase I; format: in vivo, human; details: for PFS, single patient: 500 mg once daily
[2] = Phase I; format: in vivo, human; details: for T lag / Tmax: median, [range]; for Tmax: human, in vivo, T max
[3] = system: patients with advanced solid tumors; details: first-in-man trial outside of Japan; cited from earlier work
[4] = system: Japanese patients with advanced solid tumors; assay: Phase I dose escalation; details: for Patients with TEAE leading to death: primary reason for death was disease progression

SMILES: CN1CCC(COc2cnc(-c3cccc(Cn4nc(-c5cccc(C#N)c5)ccc4=O)c3)nc2)CC1 [Tepotinib]
- median PFS ([1]; all patients (n = 12), 90% CI): 1.38 (90% CI: 1.15–1.38) months
- patients with BOR of disease progression ([1]; nine of 12 patients overall): 75%
- patients with BOR of stable disease (SD) ≥12 weeks ([1]; of 12 patients, both treated with 500 mg once daily): 16.7%
- PFS, single patient ([1]; patient with urachal cancer (MET status not evaluable)): 12.9 months
- PFS, single patient ([1]; patient, MET-expressing (IHC 2+) gastric cancer, four prior lines of chemotherapy): 4.6 months
- Caverage at steady state, all patients ([2]; 500 mg once daily): > 700 ng/mL
- T lag ([2]; Day 1, 215 mg once daily (n = 3)): 1.95 [1.95–1.97] h
- T lag ([2]; Day 1, 300 mg once daily (n = 3)): 0.97 [0.97–2.00] h
- T lag ([2]; Day 1, 500 mg once daily (n = 6)): 0.99 [0.47–1.98] h
- dose proportionality of exposure (Cmax, AUC0–t) ([2]; after the first and multiple oral doses, 215–500 mg): less than dose proportional
- Tmax ([2]; 215 mg, Day 1, 215 mg once daily (n = 3)): 8 h
- Tmax ([2]; 215 mg, Day 14, 215 mg once daily (n = 3)): 8 h
- Tmax ([2]; 300 mg, Day 1, 300 mg once daily (n = 3)): 8 h
- Tmax ([2]; 300 mg, Day 14, 300 mg once daily (n = 3)): 9.9 h
- Tmax ([2]; 500 mg, Day 1, 500 mg once daily (n = 6)): 10 h
- Tmax ([2]; 500 mg, Day 14, 500 mg once daily (n = 5)): 4.1 h
- trough concentrations between cycles 1 and 4 ([2]; individual patients): remained stable
- dose up to which monotherapy was generally well tolerated [3]: ≤ 1400 mg once daily
- maximum tolerated dose (MTD) [3]: could not be established
- Patients with TEAE leading to treatment discontinuation ([4]; 215 mg once daily (n = 3)): 0 n (%)
- Patients with any TEAE ([4]; 215 mg once daily (n = 3)): 2 n (%)
- Patients with any grade ≥3 TEAE ([4]; 215 mg once daily (n = 3)): 0 n (%)
- Patients with any related grade ≥3 TEAE ([4]; 215 mg once daily (n = 3)): 0 n (%)
- Patients with any related serious TEAE ([4]; 215 mg once daily (n = 3)): 0 n (%)
- Patients with any serious TEAE ([4]; 215 mg once daily (n = 3)): 0 n (%)
- Patients with any treatment-related TEAE ([4]; 215 mg once daily (n = 3)): 1 n (%)
- Patients with related TEAE leading to death ([4]; 215 mg once daily (n = 3)): 0 n (%)
- Patients with related TEAE of special interest (lipase or amylase elevation of grade ≥3) ([4]; 215 mg once daily (n = 3)): 0 n (%)
- Tepotinib-related TEAE, Grade 3/4: Hyponatremia (grade 3) ([4]; 215 mg once daily (n = 3)): 0 n (%)
- Tepotinib-related TEAE, Grade 3/4: Lipase increase (grade 4) ([4]; 215 mg once daily (n = 3)): 0 n (%)
- Tepotinib-related TEAE, any grade: Acneiform dermatitis ([4]; 215 mg once daily (n = 3)): 0 n (%)
- Tepotinib-related TEAE, any grade: Amylase increase ([4]; 215 mg once daily (n = 3)): 0 n (%)
- Tepotinib-related TEAE, any grade: Decreased appetite ([4]; 215 mg once daily (n = 3)): 1 n (%)
- Tepotinib-related TEAE, any grade: Dysgeusia ([4]; 215 mg once daily (n = 3)): 1 n (%)
- Tepotinib-related TEAE, any grade: Fatigue ([4]; 215 mg once daily (n = 3)): 1 n (%)
- Tepotinib-related TEAE, any grade: Hypoalbuminemia ([4]; 215 mg once daily (n = 3)): 0 n (%)
- Tepotinib-related TEAE, any grade: Hyponatremia ([4]; 215 mg once daily (n = 3)): 0 n (%)
- Tepotinib-related TEAE, any grade: Lipase increase ([4]; 215 mg once daily (n = 3)): 0 n (%)
- Tepotinib-related TEAE, any grade: Nausea ([4]; 215 mg once daily (n = 3)): 0 n (%)
- Tepotinib-related TEAE, any grade: Serum creatinine increase ([4]; 215 mg once daily (n = 3)): 0 n (%)
- Tepotinib-related TEAE, any grade: Stomatitis ([4]; 215 mg once daily (n = 3)): 0 n (%)
- Tepotinib-related TEAE, any grade: Vomiting ([4]; 215 mg once daily (n = 3)): 0 n (%)
- Patients with TEAE leading to death ([4]; 215 mg once daily (n = 3)): 0 n (%)
- Patients with TEAE leading to treatment discontinuation ([4]; 300 mg once daily (n = 3)): 0 n (%)
- Patients with any TEAE ([4]; 300 mg once daily (n = 3)): 3 n (%)
- Patients with any grade ≥3 TEAE ([4]; 300 mg once daily (n = 3)): 3 n (%)
- Patients with any related grade ≥3 TEAE ([4]; 300 mg once daily (n = 3)): 0 n (%)
- Patients with any related serious TEAE ([4]; 300 mg once daily (n = 3)): 0 n (%)
- Patients with any serious TEAE ([4]; 300 mg once daily (n = 3)): 3 n (%)
- Patients with any treatment-related TEAE ([4]; 300 mg once daily (n = 3)): 1 n (%)
- Patients with related TEAE leading to death ([4]; 300 mg once daily (n = 3)): 0 n (%)
- Patients with related TEAE of special interest (lipase or amylase elevation of grade ≥3) ([4]; 300 mg once daily (n = 3)): 0 n (%)
- Tepotinib-related TEAE, Grade 3/4: Hyponatremia (grade 3) ([4]; 300 mg once daily (n = 3)): 0 n (%)
- Tepotinib-related TEAE, Grade 3/4: Lipase increase (grade 4) ([4]; 300 mg once daily (n = 3)): 0 n (%)
- Tepotinib-related TEAE, any grade: Acneiform dermatitis ([4]; 300 mg once daily (n = 3)): 0 n (%)
- Tepotinib-related TEAE, any grade: Amylase increase ([4]; 300 mg once daily (n = 3)): 0 n (%)
- Tepotinib-related TEAE, any grade: Decreased appetite ([4]; 300 mg once daily (n = 3)): 0 n (%)
- Tepotinib-related TEAE, any grade: Dysgeusia ([4]; 300 mg once daily (n = 3)): 0 n (%)
- Tepotinib-related TEAE, any grade: Fatigue ([4]; 300 mg once daily (n = 3)): 1 n (%)
- Tepotinib-related TEAE, any grade: Hypoalbuminemia ([4]; 300 mg once daily (n = 3)): 0 n (%)
- Tepotinib-related TEAE, any grade: Hyponatremia ([4]; 300 mg once daily (n = 3)): 0 n (%)
- Tepotinib-related TEAE, any grade: Lipase increase ([4]; 300 mg once daily (n = 3)): 0 n (%)
- Tepotinib-related TEAE, any grade: Nausea ([4]; 300 mg once daily (n = 3)): 0 n (%)
- Tepotinib-related TEAE, any grade: Serum creatinine increase ([4]; 300 mg once daily (n = 3)): 0 n (%)
- Tepotinib-related TEAE, any grade: Stomatitis ([4]; 300 mg once daily (n = 3)): 0 n (%)
- Tepotinib-related TEAE, any grade: Vomiting ([4]; 300 mg once daily (n = 3)): 0 n (%)
- Patients with TEAE leading to death ([4]; 300 mg once daily (n = 3)): 0 n (%)
- Patients with TEAE leading to treatment discontinuation ([4]; 500 mg once daily (n = 6)): 0 n (%)
- Patients with any TEAE ([4]; 500 mg once daily (n = 6)): 6 n (%)
- Patients with any grade ≥3 TEAE ([4]; 500 mg once daily (n = 6)): 4 n (%)
- Patients with any related grade ≥3 TEAE ([4]; 500 mg once daily (n = 6)): 3 n (%)
- Patients with any related serious TEAE ([4]; 500 mg once daily (n = 6)): 0 n (%)
- Patients with any serious TEAE ([4]; 500 mg once daily (n = 6)): 1 n (%)
- Patients with any treatment-related TEAE ([4]; 500 mg once daily (n = 6)): 3 n (%)
- Patients with related TEAE leading to death ([4]; 500 mg once daily (n = 6)): 0 n (%)
- Patients with related TEAE of special interest (lipase or amylase elevation of grade ≥3) ([4]; 500 mg once daily (n = 6)): 2 n (%)
- Tepotinib-related TEAE, Grade 3/4: Hyponatremia (grade 3) ([4]; 500 mg once daily (n = 6)): 1 n (%)
- Tepotinib-related TEAE, Grade 3/4: Lipase increase (grade 4) ([4]; 500 mg once daily (n = 6)): 2 n (%)
- Tepotinib-related TEAE, any grade: Acneiform dermatitis ([4]; 500 mg once daily (n = 6)): 1 n (%)
- Tepotinib-related TEAE, any grade: Amylase increase ([4]; 500 mg once daily (n = 6)): 2 n (%)
- Tepotinib-related TEAE, any grade: Decreased appetite ([4]; 500 mg once daily (n = 6)): 0 n (%)
- Tepotinib-related TEAE, any grade: Dysgeusia ([4]; 500 mg once daily (n = 6)): 1 n (%)
- Tepotinib-related TEAE, any grade: Fatigue ([4]; 500 mg once daily (n = 6)): 0 n (%)
- Tepotinib-related TEAE, any grade: Hypoalbuminemia ([4]; 500 mg once daily (n = 6)): 2 n (%)
- Tepotinib-related TEAE, any grade: Hyponatremia ([4]; 500 mg once daily (n = 6)): 1 n (%)
- Tepotinib-related TEAE, any grade: Lipase increase ([4]; 500 mg once daily (n = 6)): 2 n (%)
- Tepotinib-related TEAE, any grade: Nausea ([4]; 500 mg once daily (n = 6)): 1 n (%)
- Tepotinib-related TEAE, any grade: Serum creatinine increase ([4]; 500 mg once daily (n = 6)): 1 n (%)
- Tepotinib-related TEAE, any grade: Stomatitis ([4]; 500 mg once daily (n = 6)): 1 n (%)
- Tepotinib-related TEAE, any grade: Vomiting ([4]; 500 mg once daily (n = 6)): 1 n (%)
- Patients with TEAE leading to death ([4]; 500 mg once daily (n = 6)): 1 n (%)
- dose-limiting toxicities (DLTs) ([4]; 215, 300 and 500 mg once daily, cycle 1): No DLTs
- Patients with TEAE leading to treatment discontinuation ([4]; Total, all doses (n = 12)): 0 n (%)
- Patients with any TEAE ([4]; Total, all doses (n = 12)): 11 (91.7) n (%)
- Patients with any grade ≥3 TEAE ([4]; Total, all doses (n = 12)): 7 (58.3) n (%)
- Patients with any related grade ≥3 TEAE ([4]; Total, all doses (n = 12)): 3 (25.0) n (%)
- Patients with any related serious TEAE ([4]; Total, all doses (n = 12)): 0 n (%)
- Patients with any serious TEAE ([4]; Total, all doses (n = 12)): 4 (33.3) n (%)
- Patients with any treatment-related TEAE ([4]; Total, all doses (n = 12)): 5 (41.7) n (%)
- Patients with related TEAE leading to death ([4]; Total, all doses (n = 12)): 0 n (%)
- Patients with related TEAE of special interest (lipase or amylase elevation of grade ≥3) ([4]; Total, all doses (n = 12)): 2 (16.7) n (%)
- Tepotinib-related TEAE, Grade 3/4: Hyponatremia (grade 3) ([4]; Total, all doses (n = 12)): 1 (8.3) n (%)
- Tepotinib-related TEAE, Grade 3/4: Lipase increase (grade 4) ([4]; Total, all doses (n = 12)): 2 (16.7) n (%)
- Tepotinib-related TEAE, any grade: Acneiform dermatitis ([4]; Total, all doses (n = 12)): 1 (8.3) n (%)
- Tepotinib-related TEAE, any grade: Amylase increase ([4]; Total, all doses (n = 12)): 2 (16.7) n (%)
- Tepotinib-related TEAE, any grade: Decreased appetite ([4]; Total, all doses (n = 12)): 1 (8.3) n (%)
- Tepotinib-related TEAE, any grade: Dysgeusia ([4]; Total, all doses (n = 12)): 2 (16.7) n (%)
- Tepotinib-related TEAE, any grade: Fatigue ([4]; Total, all doses (n = 12)): 2 (16.7) n (%)
- Tepotinib-related TEAE, any grade: Hypoalbuminemia ([4]; Total, all doses (n = 12)): 2 (16.7) n (%)
- Tepotinib-related TEAE, any grade: Hyponatremia ([4]; Total, all doses (n = 12)): 1 (8.3) n (%)
- Tepotinib-related TEAE, any grade: Lipase increase ([4]; Total, all doses (n = 12)): 2 (16.7) n (%)
- Tepotinib-related TEAE, any grade: Nausea ([4]; Total, all doses (n = 12)): 1 (8.3) n (%)
- Tepotinib-related TEAE, any grade: Serum creatinine increase ([4]; Total, all doses (n = 12)): 1 (8.3) n (%)
- Tepotinib-related TEAE, any grade: Stomatitis ([4]; Total, all doses (n = 12)): 1 (8.3) n (%)
- Tepotinib-related TEAE, any grade: Vomiting ([4]; Total, all doses (n = 12)): 1 (8.3) n (%)
- Patients with TEAE leading to death ([4]; Total, all doses (n = 12)): 1 (8.3) n (%)
- vital signs and other safety observations ([4]; all doses): No clinically relevant abnormalities
- patients with tepotinib-related TEAEs of any grade ([4]; all doses (n = 12)): 41.7%
